As usually defined, the pEC50 is the EC50 on a negative log10 scale, so that one unit is a factor of ten. Read a high pEC50 as a small EC50.

Molecules are shown by their SMILES. pEC50: −log10 of the molar value.

The record followed here is patent US7956069B2, “Compounds” (AstraZeneca AB, priority 2006, dated 2011).

This assay concerns the target T1, cloned human M2 receptor (Homo sapiens, UniProt P08172).
T1 construct: purchased Perkin-Elmer RBHM2M; host or cells: Chinese hamster ovary cells (CHO)
T1 sequence (P08172 1-466): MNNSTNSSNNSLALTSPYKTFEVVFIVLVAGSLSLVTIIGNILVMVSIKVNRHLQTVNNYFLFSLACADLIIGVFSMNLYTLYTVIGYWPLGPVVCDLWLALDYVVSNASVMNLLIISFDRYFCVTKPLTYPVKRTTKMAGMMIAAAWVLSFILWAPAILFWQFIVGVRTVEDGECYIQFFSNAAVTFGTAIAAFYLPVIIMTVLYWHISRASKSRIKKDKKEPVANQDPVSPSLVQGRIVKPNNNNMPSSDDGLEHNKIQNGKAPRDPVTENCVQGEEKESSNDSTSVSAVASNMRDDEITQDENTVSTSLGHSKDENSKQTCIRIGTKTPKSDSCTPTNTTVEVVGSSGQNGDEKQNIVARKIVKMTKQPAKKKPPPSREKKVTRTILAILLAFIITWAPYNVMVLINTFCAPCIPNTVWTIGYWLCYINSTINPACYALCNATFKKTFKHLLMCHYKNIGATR
As to the kind of experiment: hM2 receptor GTPγS binding. Type of assay: biochemical. Particulars: CHO membranes, [35S]GTPγS binding. As to the method:
hM2 Receptor GTPγS Binding
Membranes produced from Chinese hamster ovary cells (CHO) expressing the cloned human M2 receptor (human Muscarinic receptor subtype 2, gene bank access NM_000739), were obtained from Perkin-Elmer (RBHM2M). The membranes were thawed at 37° C., passed 3 times through a 23-gauge blunt-end needle, diluted in the GTPγS binding buffer (50 mM Hepes, 20 mM NaOH, 100 mM NaCl, 1 mM EDTA, 5 mM MgCl2, pH 7.4, 100 μM DTT). The EC50, IC50 and Emax of the compounds of the invention were evaluated from 10-point dose-response curves (three fold concentration range) done in 60 μl in 384-well non-specific binding surface plate (Corning). Ten microliters from the dose-response curves plate (5× concentration) were transferred to another 384 well plate containing the following: 10 μg of hM2 membranes, 500 μg of Flashblue beads (Perkin-Elmer) and GDP in a 25 μl volume. An additional 15 μl containing 3.3× (55000 dpm) of GTPγ^35S (0.4 nM final) were added to the wells resulting in a total well volume of 50 μl. Basal and maximal stimulated [^35S]GTPγS binding were determined in absence and presence of 30 μM of acetylcholine agonist. The membranes/beads mix were pre-incubated for 15 minutes at room temperature with 25 μM GDP prior to distribution in plates (12.5 μM final). The reversal of acetylcholine-induced stimulation (2 μM final) of [^35S]GTPγS binding was used to assay the antagonist properties (IC50) of the compounds. The plates were incubated for 60 minutes at room temperature with shaking, then centrifuged at 2000 rpm for 5 minutes. The radioactivity (cpm) were counted in a Trilux (Perkin-Elmer).
Values of EC50, IC50 and Emax were obtained using sigmoidal fits of a non-linear curve-fitting program (XLfit version 5.0.6 from ID Business Solutions Limited, Guildford, UK) of percent stimulated [^35S]GTPγS binding vs. log(molar ligand).
All EC50 and IC50 values are reported as arithmetic means ± standard error of mean of ‘n’ independent experiments. […] The IC50 was the concentration of the compound of the invention at which 50% inhibition of acetylcholine [^35S]GTPγS binding stimulation has been observed.
(In general: Binding of GTPγS marks nucleotide exchange on a G protein.)
In turn, `CCOC(=O)N1CCC(N2CCC(N3C(=O)N[C@H]4CCCC[C@@H]43)CC2)CC1` had a pEC50 of 6.92.

`CCOC(=O)N1CC[C@H](N2CCC(N3C(=O)N[C@H]4CCCC[C@@H]43)CC2)C1` had a pEC50 of 5.14. Compared with the last molecule, the pEC50 is 1.78 log units lower.

`COc1ccccc1C(=O)N1CCC(N2CCC(N3C(=O)N[C@@H]4CCCC[C@H]43)CC2)CC1` gave a negative-log EC50 (pEC50) of less than 4.52.

Consider `CC(C)OC(=O)N1CCC(N2CCC(N3C(=O)N[C@H]4CCCC[C@@H]43)CC2)CC1`, for which the pEC50 is 6.12.

Take `CC(C)OC(=O)N1CCC(N2CCC(N3C(=O)N[C@@H]4CCCC[C@@H]43)CC2)CC1`: the pEC50 is 5.60.

In turn, `O=C1CCCN1CCC(=O)N1CCC(N2CCC(N3C(=O)N[C@H]4CCCC[C@@H]43)CC2)CC1` showed a pEC50 of 6.30.

With `O=C(C1CC1)N1CCC(N2CCC(N3C(=O)N[C@@H]4CCCC[C@H]43)CC2)CC1`, the negative logarithm of the EC50 (pEC50) was less than 4.52.

`O=C1CCCN1CCC(=O)N1CCC(N2CCC(N3C(=O)N[C@@H]4CCCC[C@H]43)CC2)CC1` had a negative logarithm of the EC50 (pEC50) of 6.00.

Molecule `O=C(C1CCCC1)N1CCC(N2CCC(N3C(=O)N[C@H]4CCCC[C@@H]43)CC2)CC1` gave a negative-log EC50 (pEC50) of 5.59.

The molecule `CN1C(=O)N(C2CCN(C3CCN(C(=O)C4CC4)CC3)CC2)[C@H]2CCCC[C@@H]21` gave a pEC50 of less than 4.52.

As to `CC(C)OC(=O)N1CCC(N2CCC(N3C(=O)C[C@H]4CCCC[C@@H]43)CC2)CC1`, the pEC50 is 5.92.

In turn, `O=C(OCCF)N1CCC(N2CCC(N3C(=O)N[C@H]4CCCC[C@@H]43)CC2)CC1` gave a pEC50 of 6.42.
